Results reported in PubChem BioAssay (NCI).
Values joined by “and” are separate entries in the source; they are usually repeats but may differ in a detail not shown here. Identical values can stand only once.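 Test compounds were applied to cells in 96-well plates for 48 hours at 5 doses. GI50 is the concentration that inhibits growth by half. At the TGI there is no net growth.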

What was measured:
Experiment in all cases: DTP human tumour cell line panel, 48 h
IGROV1 ovarian = test system: IGROV1 ovarian
HS 578T breast = test system: HS 578T breast
COLO 205 colon = test system: COLO 205 colon
U251 CNS = test system: U251 CNS
HCC-2998 colon = test system: HCC-2998 colon
HCT-116 colon = test system: HCT-116 colon
NCI-H23 lung = test system: NCI-H23 lung
EKVX NSCLC = test system: EKVX NSCLC
SF-539 CNS = test system: SF-539 CNS
HL-60(TB) leukemia = test system: HL-60(TB) leukemia

Compound	GI50 (IGROV1 ovarian) [µM]	TGI (IGROV1 ovarian)	GI50 (HS 578T breast) [µM]	TGI (HS 578T breast) [µM]	GI50 (COLO 205 colon) [µM]	TGI (COLO 205 colon)	GI50 (U251 CNS) [µM]	TGI (U251 CNS)	GI50 (HCC-2998 colon) [µM]	TGI (HCC-2998 colon)	GI50 (HCT-116 colon)	TGI (HCT-116 colon)	GI50 (NCI-H23 lung) [µM]	TGI (NCI-H23 lung)	GI50 (EKVX NSCLC) [µM]	TGI (EKVX NSCLC)	GI50 (SF-539 CNS) [µM]	TGI (SF-539 CNS)	TGI (HL-60(TB) leukemia) [µM]	GI50 (HL-60(TB) leukemia) [µM]
CN(Cc1ccccc1)c1ncnc2ccc(Br)cc12	8.17	> 100 µM	11.5	27.8	16.2	38.2 µM	11.9	24.6 µM	11.9	26.3 µM	11.1 µM	23.5 µM	11.3	28.9 µM	–	–	–	–	–	–
COc1ccc(C(=O)OC2C(OC3C(O)COC(O[C@H]4C[C@H]5[C@@H]6CC=C7C[C@@H](O)CC[C@]7(C)[C@H]6CC[C@]5(C)[C@H]4[C@H](C)C(=O)CCC(C)C)C3OC(=O)C(C)C)OCC(O)C2O)cc1 (stereo partly drawn)	0.0219	4.22 µM	0.00343	0.0441	0.0575	0.325 µM	0.00381	4.16 µM	1.88	5.79 µM	0.0107 µM	3.25 µM	0.175	4.67 µM	0.0163	3.87 µM	< 0.00275	0.0289 µM	–	–
CC1=CC[C@@H]2[C@@H](CC[C@@]2(C)O)C(C)(C)[C@H]1CC[C@@H]1[C@@]2(C)CC[C@@H](O)C(C)(C)O[C@@H]2CC[C@]1(C)O	–	–	–	–	–	38.1 µM	–	39.8 µM	–	33.4 µM	–	27 µM	–	76.2 µM	–	–	–	44 µM	40.5	–
COC(=O)CCC(=O)Nc1cccc(C(F)(F)F)c1	–	> 100 µM	–	–	–	> 100 µM	–	> 100 µM	–	> 100 µM	–	> 100 µM	–	> 100 µM	–	> 100 µM	–	> 100 µM	> 100	–
CN(C(=N)c1ccccc1)c1ccccc1	–	> 100 µM	–	–	–	> 100 µM	–	> 100 µM	–	> 100 µM	–	> 100 µM	–	> 100 µM	–	> 100 µM	–	> 100 µM	> 100	–
CC(=O)O[C@H]1CC[C@@]2(C)C(=CC[C@@H]3C2CC[C@]2(C)C(=O)NC(=O)CC32)C1 (stereo partly drawn)	–	> 100 µM	–	–	–	> 100 µM	–	> 100 µM	–	> 100 µM	–	> 100 µM	–	> 100 µM	–	> 100 µM	–	> 100 µM	> 100	–
Nc1nc2ccccc2c2[nH]c3ccccc3c12	0.806	2.42 µM	–	–	1.07	2.33 µM	1.2	2.43 µM	–	–	0.499 µM	1.83 µM	1.37	2.86 µM	3.19	11.6 µM	1.76	3.37 µM	5.73	1.98
C=C(c1ccccc1)[C@@]1(O)CCCC[C@H]1NC(c1ccccc1)c1ccccc1	–	42.4 µM	–	–	–	28 µM	–	24.5 µM	–	26.1 µM	–	20.5 µM	–	28.7 µM	–	43.7 µM	–	32.7 µM	5.95	–
C/C(=N\NC(=O)C[n+]1ccccc1)c1sc(-c2nc(C)c(/C(C)=N/NC(=O)C[n+]3ccccc3)s2)nc1C	–	> 100 µM	–	–	–	> 100 µM	–	> 100 µM	–	> 100 µM	–	> 100 µM	–	> 100 µM	–	> 100 µM	–	> 100 µM	–	–
COc1ccc(C(=C(C#N)C#N)c2ccc(OC)cc2)cc1	–	> 100 µM	–	–	–	> 100 µM	–	> 100 µM	–	> 100 µM	–	> 100 µM	–	> 100 µM	–	> 100 µM	–	> 100 µM	> 100	–
CC12CCC(=O)N1c1cc([N+](=O)[O-])ccc1N2 (stereo not drawn)	–	> 100 µM	–	–	–	> 100 µM	–	> 100 µM	–	–	–	> 100 µM	–	> 100 µM	–	> 100 µM	–	> 100 µM	> 100	–
C[C@@]1([C@H](OC(=O)c2cccc3ccccc23)C(N)=O)CO1	0.779	3.75 µM	3.59	> 24.6	2.99	14.4 µM	0.997	7.89 µM	4.51	18.2 µM	0.368 µM	8.43 µM	1.23	5.65 µM	4.53	15.7 µM	0.642	2.33 µM	–	–
CC1OC(OC23C(=O)CC(C)(O)CC2(O)C=CC2=C3C(=O)c3ccc(C4CC(OC5CCC(OC6CC(O)C(O)C(C)O6)C(C)O5)C(O)C(C)O4)c(O)c3C2=O)CCC1O (stereo not drawn)	–	30.6 µM and 30.1 µM	–	–	–	11.8 µM and 8.15 µM	–	29.5 µM and 30.8 µM	–	31.1 µM and 27.3 µM	15.1 µM and 5.78 µM	28.5 µM and 18.6 µM	–	33.1 µM and 30.7 µM	–	32.7 µM and 31.7 µM	–	31.8 µM and 31.4 µM	> 100	–
C=CCNC(=O)ON1C(=O)CCC1=O	–	> 100 µM	–	–	–	> 100 µM	–	> 100 µM	–	> 100 µM	–	> 100 µM	–	> 100 µM	–	> 100 µM	–	> 100 µM	> 100	–
CO[C@H](C(=O)O[C@H]1C(=O)N2CCC3CCC1C32C)c1ccccc1 (stereo partly drawn)	–	> 100 µM	–	–	–	> 100 µM	–	> 100 µM	–	> 100 µM	–	> 100 µM	–	> 100 µM	–	> 100 µM	–	> 100 µM	> 100	–
N#CC1=C(c2ccccc2)NN(Cc2ccccc2)C(c2ccc(Cl)cc2)CC1=O (stereo not drawn)	–	–	–	–	–	> 100 µM	–	38.2 µM	–	–	–	48.5 µM	–	> 100 µM	–	–	–	–	84.6	–
O=C1C[C@@H]2[C@@H](C=CC23CC3)N1O	–	> 100 µM	–	–	–	> 100 µM	–	> 100 µM	–	> 100 µM	–	> 100 µM	–	> 100 µM	–	> 100 µM	–	> 100 µM	> 100	–
CC(=O)CC(=O)ON(C)C(C)=O	–	> 100 µM	–	–	–	> 100 µM	–	> 100 µM	–	> 100 µM	–	> 100 µM	–	> 100 µM	–	–	–	> 100 µM	> 100	–
Oc1ccccc1/C=N/Nc1nc2ccccc2s1	2.77	> 100 µM	8.84	58	4.7	> 100 µM	8.1	> 100 µM	5.37	> 100 µM	2.85 µM	> 100 µM	23.3	> 100 µM	8.73	> 100 µM	4.67	> 100 µM	–	–
O=C1C2=C(C(=O)c3c(O)ccc(O)c31)N(c1cccnc1)Cc1ccccc1O2	0.289	0.96 µM	–	–	0.102	0.333 µM	0.651	2.76 µM	1.52	3.23 µM	0.0923 µM	0.324 µM	–	–	1.18	5.74 µM	0.378	1.36 µM	0.484	0.154
